From patent US20260028352A1, “MACROCYCLIC IMIDAZO [1,2-B] PYRIDAZINE DERIVATIVE, PREPARATION METHOD THEREFOR, AND USE THEREOF” (SUZHOU LANGRUI BIOPHARMACEUTICAL CO., LTD., priority 2022, published 2026) come the findings set out here.

pIC50: −log10 of the molar value.

Test [1] relates to Ba/F3-TPM3-NTRK1-G667C cells. Put plainly: Growth inhibition of Ba/F3-TPM3-NTRK1-G667C cells (Cell Titer-Glo). Particulars: 72 hours, CTG; read-out: inhibitory activity IC50 Ba/F3-TPM3-NTRK1-G667C. The test is classed as cell-based. On the procedure:
(§1) Then the solutions were subjected to a gradient dilution with DMSO: a clean, sterile V-bottom 96-well microplate was placed in the biological safety cabinet. First, 4 μL of DMSO was added to well B2 and 10 μL of DMSO was added to wells B3-B11 respectively; Next, 6 μL of the 10 mM solution was added to well B2. The microplate was pipetted up and down 10 times for mixing. […] Mixing was performed by pipetting up and down 10 times. The solution was diluted in order until well B10. only DMSO was added to well B11 (no compound).
(§2) 6× Compound Solution Preparation (6-fold dilution, × represents dilution factor): (Initial final concentration: 10 μM), a clean, sterile V-bottom 96-well microplate was placed in the biological safety cabinet. 99 μL of cell culture medium was added to each well from B2 to G11. By using a 12-channel pipettor, 1 μL of the compound solution prepared in the previous step was added into the corresponding wells. The solutions were pipetted up and down 10 times to mix the solutions. The highest concentration of compound in this step was 60 μM.
(§3) Treatment of Cells: the above-prepared cell culture plate was taken out of the incubator. 20 μL of compound solution from each well was added to the corresponding cell culture wells. The lowest pipetting speed was used and touching the bottom of the plate was avoided. The culture plate was gently shaked to mix the compound solution, then the plate was returned to the incubator for further culture for 72 hours.
(§4) The highest treatment concentration of the compound was 10 μM. After 72 hours of treatment, the Cell Titer-Glo (CTG) assay was performed. First, the cell culture plate was removed from the CO2 incubator and allowed to stand at room temperature for 30 minutes to ensure uniform temperature of the plate. The pre-prepared Cell Titer-Glo reagent (following the manufacturer's instructions) was taken and allowed to stand at room temperature to thaw. 60 μL of Cell Titer-Glo reagent was added to each well containing cells. The cells were incubated on a horizontal shaker in a dark place at 225 rpm for 1 hour at room temperature. Then, a Tecan Spark microplate reader was used to read the plate using chemiluminescence according to the manufacturer's instructions.

Test [2] relates to Ba/F3-TPM3-NTRK1-G595R cells. Put plainly: Growth inhibition of Ba/F3-TPM3-NTRK1-G595R cells (Cell Titer-Glo). In kind it is cell-based. The conditions noted are these: 72 hours, CTG; read-out: inhibitory activity IC50 Ba/F3-TPM3-NTRK1-G595R. On the procedure: as §1, §2, §3, §4
Test [3] concerns Ba/F3-TPM3-NTRK1-WT cells. Put plainly: Growth inhibition of Ba/F3-TPM3-NTRK1-WT cells (Cell Titer-Glo). Particulars: 72 hours, CTG; read-out: inhibitory activity IC50 Ba/F3-TPM3-NTRK1-WT. The test is classed as cell-based. On the procedure:
as §1, §2, §3, §4

The next test deals with TRKA^WT kinase (Homo sapiens (Human), UniProt P04629). Put plainly: Inhibitory activity against TRKA WT kinase (Caliper mobility shift). The test is classed as biochemical. The conditions noted are these: in vitro kinase assay. On the procedure: Kinase Assay Process: 1× Kinase buffer was prepared. […] The compounds were serially diluted into 10 concentrations ([…], 0.15, and 0.05 nM) using a Precision 3-fold dilution method. By using the Echo550 liquid handler, 250 nL of the 100-fold final concentration compound was transferred to an OptiPlate-384F plate. a 2.5× final concentration kinase solution was prepared using 1× Kinase buffer. 10 μL of the 2.5× final concentration kinase solution was added to the compound wells and the positive control wells, and 10 μL of 1× Kinase buffer was added to the negative control wells. The plate was centrifuged at 1000 rpm for 30 seconds, vortexed for mixing, and then incubated at room temperature for 10 minutes. A mixture of 5/3× final concentration of ATP and Kinase Substrate 22 was prepared using 1× Kinase buffer. 15 μL of the mixture of the 5/3× final concentration ATP and the substrate was added to initiate the reaction, the 384-well plate was centrifuged at 1000 rpm for 30 seconds, vortexed for mixing, and incubated at room temperature for the required time. 30 μL of the termination solution was added to stop the kinase reaction, the plate was centrifuged at 1000 rpm for 30 seconds, and vortexed for mixing. The conversion rate was measured using the Caliper EZ Reader.
Data Analysis: the inhibition rate was calculated as follows:
% Inhibition=(Conversion %_max−conversion %_sample)÷(Conversion %_max−conversion %_min)×100
Conversion %_sample is the conversion rate reading for the sample; Conversion %_min is the average value of the negative control wells, representing the conversion rate for wells without enzyme activity: Conversion %_max is the average value of the positive control wells, representing the conversion rate for wells without compound inhibition. A dose-response curve was fitted using the log concentration of the compound as the X-axis and the percentage inhibition as the Y-axis. The log(inhibitor) vs. response-variable slope of the GraphPad Prism 5 software was used to fit the dose-response curve, and the IC50 value for each compound was obtained. The calculation formula is:
Y=Bottom+(Top−Bottom)/(1+10^((Log IC50−X)*HillSlope)).
wherein X represents the concentration of the compound to be tested; Y represents the inhibition rate at the concentration X: Top refers to the maximum response: Bottom refers to the baseline response; HillSlope refers to the slope of the curve (i.e., the gradient).

Chain of TRKA^WT kinase (P04629 33-796): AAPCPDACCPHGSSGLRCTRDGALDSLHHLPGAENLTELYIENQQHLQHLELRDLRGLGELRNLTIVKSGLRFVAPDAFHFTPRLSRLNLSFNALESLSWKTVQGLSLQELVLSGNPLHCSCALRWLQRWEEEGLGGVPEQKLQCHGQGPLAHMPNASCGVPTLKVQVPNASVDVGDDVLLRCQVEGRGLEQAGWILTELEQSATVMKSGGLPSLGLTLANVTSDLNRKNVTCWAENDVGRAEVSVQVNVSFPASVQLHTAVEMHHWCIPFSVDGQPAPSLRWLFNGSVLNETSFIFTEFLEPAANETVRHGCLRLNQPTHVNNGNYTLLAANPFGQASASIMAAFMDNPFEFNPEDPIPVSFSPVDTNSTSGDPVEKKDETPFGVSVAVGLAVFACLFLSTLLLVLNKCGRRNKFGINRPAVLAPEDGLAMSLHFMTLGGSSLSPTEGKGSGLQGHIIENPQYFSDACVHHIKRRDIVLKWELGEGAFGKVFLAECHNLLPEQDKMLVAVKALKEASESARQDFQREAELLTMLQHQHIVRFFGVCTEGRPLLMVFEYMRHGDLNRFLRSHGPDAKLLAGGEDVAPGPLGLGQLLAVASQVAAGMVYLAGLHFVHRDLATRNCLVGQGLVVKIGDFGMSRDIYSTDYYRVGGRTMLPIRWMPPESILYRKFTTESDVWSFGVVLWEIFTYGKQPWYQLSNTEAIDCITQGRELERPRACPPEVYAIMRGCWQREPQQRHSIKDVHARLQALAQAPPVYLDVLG

On to `CC1Nc2ccc3ncc(n3n2)-c2cc(ccn2)CCOc2ccccc21` (centres unmarked) [Example I-9, (E)-4-methyl-6-oxa-3-aza-2(3,6)-imidazo[1,2-b]pyridazina-1(2,4)-pyridina-5(1,2)-benzenacyclooctaphane], for which the pIC50 is 6.51 in test [1], 6.53 in test [2] and 7.96 in test [3].
For `CC1Nc2ccc3ncc(n3n2)-c2cc(ncn2)COc2ccccc21` (centres unmarked) [Example I-10, (E)-6-methyl-4-oxa-7-aza-1(3,6)-imidazo[1,2-b]pyridazina-2(4,6)-pyrimidine-5(1,2)-benzenacycloheptaphane], the pIC50 in test [1] was 6.42; in test [2], 6.42; in test [3] it was 8.34.
On to `CC1Nc2ccc3ncc(n3n2)-c2cc(ncn2)CCOc2ccccc21` (centres unmarked) [Example I-11, […]], for which the pIC50 in test [1] is 6.38; in test [2], 6.38; in test [3] it was 8.60.
Turning to `C[C@@H]1Cc2ccnc(c2)-c2cnc3ccc(nn23)N2C[C@@H](F)C[C@@H]2c2cc(F)ccc2O1` [Example I-39, (3^2R,3^4S,6R,E)-3^4,4^5-difluoro-6-methyl-5-oxa-2(3,6)-imidazo[1,2-b]pyridazina-1(2,4)-pyridina-3(1,2)-pyrrolidina-4(1,2)-benzenacycloheptaphane], the pIC50 was 9.52 in test [1], 10.00 in test [2] and 11.00 in test [3].
For `C[C@@H]1Cc2ccnc(c2)-c2cnc3ccc(nn23)N2C[C@@H](F)C[C@@H]2c2cc(F)cnc2O1` [Example I-40, (3^2R,3^4S,6R,E)-3^4,4^5-difluoro-6-methyl-5-oxa-2(3,6)-imidazo[1,2-b]pyridazina-1(2,4),4(3,2)-dipyridina-3(1,2)-pyrrolidinacycloheptaphane] the same measures were 10.00, 10.00 and 11.00.
With `Fc1ccc2c(c1)[C@H]1C[C@H](F)CN1c1ccc3ncc(n3n1)-c1cc(ccn1)CO2` [Example I-50, (14bR,16S,E)-13,16-difluoro-14b,15,16,17-tetrahydro-9H-1,19-etheno-4,8-(metheno)benzo[b]imidazo[1,5-h]pyrrolo[2,1-d][1]oxa[5,7,8,11]tetraazacyclopentadecine], the figures for the pIC50 in test [1], in test [2] and in test [3] were 9.52, 9.70 and 10.00, respectively.
On to `Fc1ccc2c(c1)[C@H]1C[C@H](F)CN1c1ccc3ncc(n3n1)-c1cc(ccn1)CCO2` [Example I-54, (3^2R,3^4S,E)-3^4,4^5-difluoro-5-oxa-2(3,6)-imidazo[1,2-b]pyridazina-1(2,4)-pyridina-3(1,2)-pyrrolidina-4(1,2)-benzenacycloheptaphane], for which the pIC50 in test [1] is 8.68; in test [2], 9.40; in test [3], 9.74.
For `Fc1cnc2c(c1)[C@H]1C[C@H](F)CN1c1ccc3ncc(n3n1)-c1cc(ccn1)CCO2` [Example I-56, (3^2R,3^4S,E)-3^4,4^5-difluoro-5-oxa-2(3,6)-imidazo[1,2-b]pyridazina-1(2,4), 4(3,2)-dipyridina-3(1,2)-pyrrolidinacycloheptaphane], in that order: 8.03, 9.05 and 9.70.
In the case of `Fc1ccc2c(c1)[C@H]1C[C@H](F)CN1c1ccc3ncc(n3n1)-c1cc(ncn1)CO2` [Example I-58, (14bR,16S,E)-13,16-difluoro-14b,15,16,17-tetrahydro-9H-1,19-etheno-4,8-(metheno)benzo[n]imidazo[5,1-h]pyrrolo[1,2-l][1]oxa[4,6,9,10,12]pentaazacyclopentadecine], the pIC50 in test [1] is 7.90; in test [2], 8.68; in test [3], 9.85.
For `Fc1cnc2c(c1)[C@H]1C[C@H](F)CN1c1ccc3ncc(n3n1)-c1cc(ncn1)CO2` [Example I-60, (14bR,16S,E)-13,16-difluoro-14b,15,16,17-tetrahydro-9H-1,19-etheno-4,8-(metheno)imidazo[5,1-h]pyrido[3,2-n]pyrrolo[1,2-l][1]oxa[4,6,9,10,12]pentaazacyclopentadecine], in that order: 7.65, 8.60 and 9.89.
For the compound `Fc1ccc2c(c1)[C@H]1C[C@H](F)CN1c1ccc3ncc(n3n1)-c1nccc(n1)CO2` [Example I-62, (14bR,16S,E)-13,16-difluoro-14b,15,16,17-tetrahydro-9H-4,8-(azeno)-1,19-ethenobenzo[b]imidazo[1,5-h]pyrrolo[2,1-d][1]oxa[5,7,8,11]tetraazacyclopentadecine], the pIC50 in test [1] is 7.87; in test [2], 9.15; in test [3], 9.68.
For `Fc1cnc2c(c1)[C@H]1C[C@H](F)CN1c1ccc3ncc(n3n1)-c1nccc(n1)CO2` [Example I-64, (14bR,16S,E)-13,16-difluoro-14b,15,16,17-tetrahydro-9H-4,8-(azeno)-1,19-ethenoimidazo[1,5-h]pyrido[2,3-b]pyrrolo[2,1-d][1]oxa[5,7,8,11]tetraazacyclopentadecine] the same measures were 8.07, 9.05 and 9.52.
For `Fc1ccc2c(c1)[C@H]1C[C@H](F)CN1c1ccc3ncc(n3n1)-c1cc(cnn1)CO2` [Example I-66, (14bR,16S,E)-13,16-difluoro-14b,15,16,17-tetrahydro-9H-1,19-etheno-4,8-(metheno)benzo[n]imidazo[5,1-h]pyrrolo[1,2-l][1]oxa[5,6,9,10,12]pentaazacyclopentadecine] the same measures were 8.89, 9.40 and 10.30.
For `Fc1cnc2c(c1)[C@H]1C[C@H](F)CN1c1ccc3ncc(n3n1)-c1cc(cnn1)CO2` [Example I-68, (14bR,16S,E)-13,16-difluoro-14b,15,16,17-tetrahydro-9H-1,19-etheno-4,8-(metheno)imidazo[5,1-h]pyrido[3,2-n]pyrrolo[1,2-l][1]oxa[5,6,9,10,12]pentaazacyclopentadecine] the same measures were 8.55, 8.80 and 10.22.
Regarding “(R)-(E)-4-methyl-6-oxa-3-aza-2(3,6)-imidazo[1,2-b]pyridazina-1(4,6)-pyrimidina-5(1,2)-benzenacyclooctaphane [Example I-33]”, the pIC50 at TRKA^WT kinase is 8.23.
As for “(S)-(E)-5^5-fluoro-6-methyl-3-oxa-7-aza-1(3,6)-imidazo[1,2-b]pyridazina-2(2,4), 5(2,3)-dipyridinacycloheptaphane [Example I-25]”, on TRKA^WT kinase, the pIC50 is 8.29.
